In patent publication US11655221B2, “Certain (2S)-N-[(1S)-1-cyano-2-phenylethyl]-1,4-oxazepane-2-carboxamides as dipeptidyl peptidase 1 inhibitors” (AstraZeneca AB, priority 2014, dated 2023):

Assays:
[1] = Test B: In-vitro competitive aortic tissue binding assay; set-up: species or system rat; conditions: 100 μM test compound, competition with [14C]-labelled WO2010/128324 Ex. 3, categories strong binder, medium binder, no binder
Protocol: Test B: In-Vitro Competitive Aortic Tissue Binding Assay
Aortic homogenate was prepared from the thoracic aortae of Han Wistar rats. Freshly isolated to thoracic aortae were frozen, and later thawed and stripped of non-elastic material.
Homogenate concentration was adjusted to 30 mg/mL in Puck's saline, and aliquots were stored at −80° C. until use. Positive and negative control compounds and test compounds were made up to 100 mM in DMSO, and added to 1 mL aliquots of aortic homogenate in Puck's saline for a final concentration of 100 μM. Homogenate samples were pre-incubated with test compounds at 37° C., rotating, overnight. [^14C]4-Amino-N-[(1S)-1-cyano-2-(4′-cyanobiphenyl-4-yl)ethyl]tetrahydro-2H-pyran-4-carboxamide was then added to all samples to a final concentration of 100 μM, and samples were incubated at 37° C., rotating, for a further 2 h. Protein was precipitated from each sample by the addition of 10 mL acetone, pre-chilled to −20° C. Samples were left overnight at −20° C. to allow complete precipitation. Precipitate was pelleted by centrifugation at 4,500×g at 4° C. for 20 min, an aliquot of supernatant was removed for analysis, and the remainder of the supernatant discarded. Precipitate was washed by resuspension in 10 mL 80% methanol in distilled water, and re-pelleted by centrifugation at 4,500×g at 4° C. for 20 min. […] After final wash, precipitate was air-dried, and dissolved overnight in 1 mL NCSII Tissue Solubiliser. 1 mL aliquots of supernatants were added to 5 mL Ultima Gold scintillation fluid (Perkin Elmer, MA, U.S.A.), and 1 mL solubilised pellets were added to 5 mL Hionic-Fluor scintillation fluid (Perkin Elmer, Mass., U.S.A.). Radioactivity of samples was determined on a Beckman LS6500 multipurpose scintillation counter (Beckman Coulter, IN, U.S.A.). […] Duplicate samples were tested for each compound on each experimental occasion, and at least two experiments were run for each test compound. […] 1-way ANOVA and Bonferroni's multiple comparison tests were performed to calculate significance of differences from vehicle control.

[2] = Quantitative whole-body autoradiography (QWBA), aortic retention; format: in vivo
[3] = biological target: recombinant human DPP1 (rhDPP1) (Homo sapiens (Human), UniProt P53634); assay: Test A1: Fluorescence assay for recombinant human (RH) DPP1; format: biochemical; conditions: Test A1, H-Gly-Arg-AMC substrate, 22° C. (Examples 1-35)
Protocol: Test A1: Fluorescence Assay for Recombinant Human (RH) DPP1
The activity of DPP1 was determined by measuring the enzymatic release of aminomethyl coumarin (AMC) from the peptide substrate (H-Gly-Arg-AMC), which leads to an increase in fluorescence intensity at λex=350 nm and λem=450 nm. The assay was carried out in black 384 well plates in a final volume of 50 μl at 22° C. The assay conditions contained the following: 25 mM piperazine buffer pH 5.0; 50 mM NaCl, 5 mM DTT; 0.01% (v/v) Triton X-100; 100 μM H-Gly-Arg-AMC and rhDPP1 (˜50 pM). […] Routinely, inhibitors were pre-incubated with rhDPP1 for 30-60 min prior to the addition of the peptide substrate to start the reaction for a further 60 min at 22° C.

Sequence of recombinant human DPP1 (rhDPP1) (P53634 231-394): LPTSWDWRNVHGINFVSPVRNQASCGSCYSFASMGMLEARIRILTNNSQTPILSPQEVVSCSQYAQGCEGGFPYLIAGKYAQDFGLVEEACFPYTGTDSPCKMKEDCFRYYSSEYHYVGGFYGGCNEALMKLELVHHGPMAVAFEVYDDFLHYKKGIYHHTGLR
Sequence of recombinant human DPP1 (rhDPP1) (P53634 25-143): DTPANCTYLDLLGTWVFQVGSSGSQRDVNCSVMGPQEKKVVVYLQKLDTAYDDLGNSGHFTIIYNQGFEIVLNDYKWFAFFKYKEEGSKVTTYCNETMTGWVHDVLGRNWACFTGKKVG
Sequence of recombinant human DPP1 (rhDPP1) (P53634 395-463): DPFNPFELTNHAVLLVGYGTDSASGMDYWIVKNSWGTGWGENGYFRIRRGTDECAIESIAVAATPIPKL

Row | Aortic Tissue Binding [1] | aortic retention in rat QWBA studies [2] | DPP1 activity, pIC50 [3] | Structure (SMILES)
1 | Binder |  |  | N#Cc1ccc(-c2ccc(C[C@@H](C#N)NC(=O)[C@@H]3CCCCN3)cc2)cc1 [WO2009/074829 (Example 24)]
2 | Strong binder (reference) | high level of aortic retention |  | N#Cc1ccc(-c2ccc(C[C@@H](C#N)NC(=O)C3(N)CCOCC3)cc2)cc1 [WO2010/128324 (Ex. 3), 4-amino-N-[(1S)-1-cyano-2-(4′-cyanobiphenyl-4-yl)ethyl]tetrahydro-2H-pyran-4-carboxamide]
3 |  |  | 7.61 | CN1C(=O)CNc2ccc(-c3ccc(C[C@@H](C#N)NC(=O)[C@@H]4CNCCCO4)cc3)cc21 [Example 35, (2S)—N-{(1S)-1-Cyano-2-[4-(4-methyl-3-oxo-1,2,3,4-tetrahydroquinoxalin-6-yl)phenyl]ethyl}-1,4-oxazepane-2-carboxamide]
4 | Medium binder |  |  | Cn1c(=O)oc2ccc(-c3ccc(C[C@@H](C#N)NC(=O)[C@@H]4CCCCN4)cc3)cc21 [WO2009/074829 (Example 96)]
5 | No binder |  |  | Cn1c(=O)oc2ccc(-c3ccc(C[C@@H](C#N)NC(=O)[C@@H]4CNCCCO4)cc3)cc21 [Example 2, (2S)—N-{(1S)-1-Cyano-2-[4-(3-methyl-2-oxo-2,3-dihydro-1,3-benzoxazol-5-yl)phenyl]ethyl}-1,4-oxazepane-2-carboxamide]
6 | Strong binder |  |  | Cn1c(=O)oc2ccc(-c3ccc(C[C@@H](C#N)NC(=O)C4(N)CCOCC4)cc3)cc21 [WO2010/128324 (Example 17)]
